According to patent US20080026003A1, “Methods for inhibiting pain” (The General Hospital Corporation, priority 2000, published 2008):

How the values were obtained:
PGE2 = assay: Central PGE2 levels after intrathecal IL-1β; format: in vivo, rat; details: intrathecal 5 ng
Procedure: To visualize the induction of Cox-2 protein in dorsal horns after peripheral inflammation, immunohistochemistry was performed on transverse spinal cord sections (20 μm) using a Cox-2 antibody (Santa Cruz) and a neuronal marker, the NeuN antibody (Chemicon), as described previously (Amay et al., Mol. Cell Neurosci. 15:331-342, 2000). In situ hybridization was performed using a digoxygenin-labeled riboprobe to visualize the induction of Cox-2 mRNA (Mannion et al., Proc. Natl. Acad. Sci. U. S. A. 96:9385, 1999). Low basal levels of Cox-2 mRNA and protein were present in dorsal horn neurons with a substantial upregulation six and 12 hours post-inflammation (FIGS. 2A-2D and 3). To determine whether this induction of Cox-2 was correlated with an increase in PGE2 levels, a 100-200 μl sample of cerebrospinal fluid was withdrawn from the cisterna magna of anaesthetized rats using a 27 G needle, and PGE2 levels were analyzed using a PGE2 enzyme-immunoassay according to the manufacturer's protocol (Amersham Pharmacia Biotech). […]
To determine whether IL-1β induces central Cox-2, rats were subjected to intravenous or intrathecal administration of this cytokine, and Cox-2 mRNA levels in the lumbar spinal cord were assessed five hours later. […]

Cox-2 mRNA [1] = assay: Cox-2 mRNA in spinal cord and DRG after IL-1β administration in vivo; set-up: species or system rat; details: for upregulation of Cox-2 mRNA in the spinal cord: five hours later
Procedure: (§1) To determine whether IL-1β induces central Cox-2, rats were subjected to intravenous or intrathecal administration of this cytokine, and Cox-2 mRNA levels in the lumbar spinal cord were assessed five hours later. […] IL-1β also induces Cox-2 expression in dorsal root ganglion neurons (“DRG”), which are primary sensory neurons, both in vivo after intrathecal IL-1β administration and in vitro in primary neuronal cultures. […] For this analysis, Cox-2 mRNA levels were monitored using an RNase protection assay, and protein expression was visualized by immunohistochemistry, as described herein (FIG. 10).

Cox-2 mRNA [2] = assay: Cox-2 mRNA induction by IL-1β in primary DRG neuron cultures; format: cell-based, rat; details: 1 or 10 ng/ml
Procedure: as §1
To measure the contribution of p38, ERK, and NFκ-B to IL-1β-mediated induction of Cox-2 mRNA and protein levels, specific inhibitors for each of these factors were used. p38 and ERK inhibitors each decreased the induction by IL-1β of Cox-2 mRNA in the primary DRG neuron cultures by 30% (FIG. 10).

p38 and ERK = assay: MAP kinase phosphorylation in primary DRG neuron cultures; format: cell-based, rat; details: 10 ng/ml; 30 minutes
Procedure: To investigate the intracellular signaling pathway that leads to the increase in Cox-2 mRNA in the DRG neurons following treatment with IL-1β, the activation of the NFκ-B transcription factor and members of the MAP kinase family in primary DRG neurons was studied. […] Phosphorylated p38 and ERK were visualized by standard Western blot analysis and immunohistochemistry 30 minutes after administration of 10 ng/ml IL-1β to the culture medium (FIG. 12).
After CFA-induced inflammation, NGF is produced in the inflamed paw tissue and is retrogradely transported to the cell body of DRG neurons. NGF is critical for gene expression in DRG neurons and plays a major role in inflammatory pain (Lindsay et al., Nature 337: 362-364, 1989; and Woolf et al., Neuroscience 62:327-331, 1994). […] To determine whether NGF is required for the inflammation-induced activation of p38 and upregulation of VR1, NGF antiserum (i.p., 5 μl/g body weight, 84 mg/ml) was injected to neutralize endogenous NGF. […] Intrathecal injection of NGF (2 μg in 10 μl, twice a day for three days, Boeringer) increased both p-p38 levels and VR1 levels in DRG neurons. […] To test whether NGF acts via p38 to upregulate VR1, the p38 inhibitor SB203580 (1 μg) was co-administrated with NGF (twice a day for three days).

Cox-2 mRNA [3] = assay: Cox-2 mRNA in isolated spinal cord slice in vitro; format: cell-based, rat; details: 10 ng/ml; after three hours
Procedure: Two mechanisms may contribute to central Cox-2 induction in response to peripheral inflammation: 1) sensory inflow from nerve fibers innervating the inflamed hindpaw or 2) circulating pro-inflammatory cytokines. To determine whether primary sensory neuron activity increases central Cox-2, an isolated adult rat spinal cord slice preparation with an attached dorsal root was analyzed (FIG. 5A). To prepare this spinal cord slice, the lumbar spinal cord from an adult rat under urethane anesthesia was removed and immersed in cold Kreb's solution. A 700-μm-thick transverse slice with attached L4 dorsal root (15-20 mm) was prepared and perfused with Kreb's solution saturated with 95% O2 and 5% CO2 at 36-37° C. (Baba et al., J Neurosci 19:859, 1999). The L4 dorsal root was electrically stimulated for 30 minutes using a suction electrode at 20 μA (0.05 ms, 50 Hz) for Aβ-fibers, 100 μA (0.05 ms, 50 Hz) for […] 1000 μA (0.5 ms, 50 Hz) for C-fibers. The slices were perfused with Kreb's solution for two hours before electrical stimulation, and for three hours after stimulation.

[4] = system: CFA-induced inflammatory pain in rats
Source text: For these studies, animals were habituated to the testing environment daily for two days before baseline testing. Except for the heat test, all the animals were placed on an elevated wire grid. For mechanical allodynia, the plantar surface of the hindpaw was stimulated with a series of von Frey hairs. The threshold was taken as the lowest force that evoked a brisk withdrawal response. For heat hyperalgesia, the plantar surface of a hindpaw was exposed to a beam of radiant heat through a transparent Perspex surface (Hargreaves et al., Pain 32:77-88, 1988). The withdrawal latency was recorded, with a maximum 15 seconds as cutoff. The withdrawal latency was averaged over three trials.
To examine the functional consequences of ERK activation and its downstream effects on prodynorphin and NK-1 upregulation, we determined whether inhibition of ERK activation modified inflammatory pain hypersensitivity.
ERK activation by CFA may contribute to inflammatory pain hypersensitivity either by maintaining ongoing post-translational changes or by inducing transcription of genes such as NK1 and prodynorphin. In the former case, blocking ERK activation in established inflammation would be expected to reduce the pain hypersensitivity within tens of minutes due to dephosphorylation of ERK substrates. If the contribution of ERK activation were through transcription, inhibiting ERK activation would be expected to have no immediate effect, but have a delayed effect. To distinguish between these two possible mechanisms, U0126 was intrathecally injected (1 μg) into rats with established inflammation (24 hours after CFA injection) and tested pain hypersensitivity 30 minutes, 6 hours, and 24 hours after the injection of U0126.

NK-1 = details: 1 μg intrathecal 30 minutes before and 6 hours after CFA; 24 hours
Procedure: The data are represented as mean+SEM.
To explore whether ERK activation is involved in NK-1 upregulation, the MEK inhibitor U0126 was delivered intrathecally before the induction of inflammation via an osmotic pump (0.5 μg/ul/hr for 2 days). In particular, an Alzet osmotic pump (three days pump, 1 μl/hr) was filled with the MEK-inhibitor U0126 (0.5 μg/μl) in 50% DMSO, and the catheter of the pump implanted intrathecally at least three hours before CFA injection. DMSO (50%) was used as vehicle control.

prodynorphin mRNA = details: 2×1 μg intrathecal; 24 hours after CFA
Source text: To investigate changes in the expression of prodynorphin in response to inflammation, an RNase protection assay, in situ hybridization, and immunohistochemistry were used. […] Differences between groups were compared using student the t-test or ANOVA, followed by Fisher's PLSD. For non-parametric data, the Mann-Whittney U test was applied.
For the in situ hybridization analysis, animals were rapidly sacrificed in a CO2 chamber, and L4-L5 spinal cord segments were removed and cut on a cryostat at a thickness of 20 μm. […] An antinsense RNA probe, and the corresponding sense control probe, were labeled by in vitro transcription using linearized DNA templates for prodynorphin and dig labeling mixture for two hours at 37° C. […] Tissue Sections were air dried for two hours, fixed in 4% paraformaldehyde for 15 minutes, and acetylated in acetic anhydride (0.25%) for 10 minutes. Sections were pre-hybridized for two hours at room temperature, then incubated in hybridization buffer overnight at 60° C. […] Eight non-adjacent sections from the L4-L5 lumbar spinal cord were randomly selected, and the numbers of mRNA-positive neuronal profiles in the superficial laminae and/or deep laminae of the dorsal horn in each section were counted (under a 20× object field) by an observer blind to the treatment. […]

[5] = non-inflamed animals, 1 μg intrathecal, 30 minutes after administration

For “IL-1β: cytokine administered intravenously, intrathecally or to cultures”, the “upregulation of central PGE2 levels” value (PGE2) was 50 fold, the “central PGE2 levels” value (PGE2; p<0.005, n=6) was 1204 ± 360 pg/mL and the “upregulation of Cox-2 mRNA in the spinal cord” value (“upregulation of Cox-2 mRNA” below) (Cox-2 mRNA [1]; intrathecal 5 ng) was 20 fold. For the same compound, the “upregulation of Cox-2 mRNA” value (Cox-2 mRNA [1]; intrathecal 50 ng) was 30 fold, the “Cox-2 mRNA levels in rat lumbar DRG neurons” value (Cox-2 mRNA [1]; intrathecal 1 and 10 ng, four hours after treatment) was “substantially upregulated” and the “upregulation of Cox-2 mRNA” value (Cox-2 mRNA [1]; intravenous 1 μg) was “four”. For the same compound, the “Cox-2 mRNA and protein levels in cultured DRG neurons” value (Cox-2 mRNA [2]) was “increased significantly”, the “phosphorylation of p38 and ERK in DRG cell cultures” value (p38 and ERK) was “lead to phosphorylation of p38 and ERK” and the “Cox-2 mRNA expression in the spinal cord in vitro” value (Cox-2 mRNA [3]) was “increased”.
For `N#CC(=C(/N)Sc1ccccc1N)/C(C#N)=C(\N)Sc1ccccc1N` [U0126], the “heat hyperalgesia and mechanical allodynia” value ([4]; 1 μg intrathecal 24 hours after CFA, tested at 30 minutes) was “Neither heat hyperalgesia nor mechanical allodynia was significantly affected”, the mechanical allodynia ([4]; 1 μg intrathecal 24 hours after CFA, tested at 6 hours) was “decreased” and the heat hyperalgesia ([4]; 1 μg intrathecal 24 hours after CFA, tested at 24 hours) was “decreased”. For the same compound, the heat withdrawal latency [4, 5] was 113 % of vehicle control, the mechanical withdrawal threshold [4, 5] was 108 % of the vehicle control and the “CFA-induced NK-1 increase in the dorsal horn (Western blot)” value (NK-1) was “inhibited”. The “number of prodynorphin mRNA labeled neurons in the deep laminae” value (prodynorphin mRNA) was “without affecting”.
